Experimental data published in PMC9084191 (European Journal of Pharmaceutics and Biopharmaceutics, 2022).
Read-outs that look alike come from different tables or passages of the source.

Tests used:
Water sorption analysis = assay type: physicochemical; settings: for Water sorption (%) at 95 % RH: 37 °C
Method: Water sorption profiles of DLM salts and ASDs were measured by using a SGA-100 symmetrical gravimetric analyzer (TA Instrument, New Castle, DE) at 37 °C. Samples (10–20 mg) were flushed with dry air for 3 h. After drying, samples were exposed to increasing relative humidity (RH) steps from 5 to 95% with a maximum step time of 180 min. Vapor sorption profiles are recorded as the equilibrium value (the weight change was below 0.001%/min over 5 min) at each RH.

[1] = Glass transition temperature by DSC; assay type: physicochemical; settings: for Tg: neat drug, salt or polymer
Method: The glass transition temperatures (Tg) of drug, polymers and ASD samples were determined using a TA Q2000 DSC equipped with an RCS90 refrigeration unit (TA Instruments, New Castle, DE). The temperature calibration was performed using indium and tin, while enthalpy calibration was conducted with indium. Samples (5–10 mg) were added to aluminum pans with a pinhole lid (Tzero pan, TA Instrument, DE). […] The heating and cooling cycle was repeated 3 times to remove residual solvent and thermal history, and the last cycle was used for analysis.

[2] = Stability on storage at 40 °C/75% RH (PXRD, 19F NMR, HPLC); assay type: physicochemical; settings: 2 weeks, 40 °C/RH 75%; for Drug content reduction (%): HPLC
Method: The salt form of DLM was prepared using a Buchi Rotavapor-R (Newcastle, Delaware). DLM free base and sulfonic acid were added at drug-acid 1:1 molar ratio in a mixture of DCM and acetone (1:1 v/v) where alcoholic solvents were avoided to prevent the formation of alkyl esters during salt synthesis. Solvents were removed by rotary evaporation at 40 °C. DLM salts were then kept under vacuum at room temperature overnight to remove residual solvents. DLM salts were characterized by ^1H-nuclear magnetic resonance (NMR) spectroscopy to confirm salt formation. Their physical and chemical stability were monitored following storage at 40 °C/75% relative humidity (RH) by measuring several physicochemical properties, including crystallinity (by powder X-ray diffraction, PXRD), impurities (by ^19F NMR spectroscopy), drug content (by HPLC as described above) and hygroscopicity (using dynamic vapor sorption analysis).
(§1) Crystallinity of ASDs and DLM salts was evaluated using a Rigaku Smartlab diffractometer (Rigaku Americas, The Woodlands, TX) equipped with a Cu–Kα radiation source and a D/tex ultradetector. Samples were added to glass sample holders, and powder patterns were recorded over the range of 4-40° 2θ at a scanning speed of 4° per min and a 0.02° step size with the voltage and current set to 40 kV and 44 mA, respectively.
Salt formation was confirmed by ^1H nuclear magnetic resonance (NMR) spectroscopy and impurities in DLM salts following preparation and storage were detected by ^19F NMR spectroscopy. Samples were dissolved in dimethyl sulfoxide-d6 (Cambridge Isotope Laboratories, Inc., Andover, MA) at a concentration of 20 mg/mL. All NMR spectra were acquired on a Bruker DRX 500 MHz spectrometer (Karlsruhe, Germany) equipped with a BBFO z-gradient probe operating at room temperature. For ^1H NMR spectra, the spectral sweep width was 20 ppm, acquisition time was 1.6 sec and number of scans was 16. For ^19F NMR spectroscopy, ^1H was decoupled during acquisition, spectral sweep width was 50 ppm, acquisition time was 1.4 sec and the number of scans was 64.

[3] = design: method as in PMID 24881816; settings: predicted log P calculated by ALOGPS; cited from earlier work
[4] = Release testing of tablets, two-stage pH-shift (pH 1.6 to 6.5); assay type: physicochemical
Method: (§2) The ASDs were mixed with excipients and compressed to obtain tablets containing 5 mg DLM with respect to the free base. All dissolution studies of DLM tablets were conducted in triplicate in single-stage or two-stage pH-shift condition using a Hanson Vision G2 Classic 6 dissolution system (Teledyne Hanson Research, Chatsworth, CA). For single-stage testing, the tablets containing the ASDs were added to 50 mL PBS, pH 6.5 and monitored for 1 h at 37° C, with 150 rpm of stirring. For pH-shift experiments, release in the acidic stage was conducted in 45 mL HCl solution pH 1.6 for 1 h, followed by addition of 5 mL concentrated PBS (pH 7.3) to adjust the pH of solution to pH 6.5 and drug release was monitored for an additional 30 min. An in situ Rainbow fiber optic ultraviolet spectrometer coupled with 10 mm fiber optic dip probes (Pion, Billerica, MA, USA) was used to monitor drug concentration over time. Second derivative analysis was applied to correct the spectral baseline and a calibration curve of area under curve (AUC) of the range 330–350 nm was used to calculate the drug concentration.

[5] = Release testing of tablets, single-stage PBS pH 6.5; assay type: physicochemical; settings: PBS pH 6.5, single stage
Method: as §2

[6] = design: method as in earlier work; settings: predicted pKa; cited from earlier work
[7] = cited from earlier work
[8] = cited from earlier work; remark: listed apart in the source
[9] = Dynamic light scattering of DLM-rich nanodroplets; assay type: physicochemical; settings: HPMCP and HPMCAS solutions 300 µg/mL, drug 50 µg/mL, PBS pH 6.5, 3-h period
Method: The size of DLM-rich droplets formed above the amorphous solubility was measured by dynamic light scattering (DLS) using a Nano-Zetasizer (Nano-ZS, Malvern Instruments, Westborough, MA). […] To evaluate the impact of polymers on nanodroplet stability, polymers were pre-dissolved in solution at a concentration of 300 μg/mL and drug was introduced at 50 μg/mL. Samples were monitored for up to 3 h after liquid–liquid phase separation was initiated.

[10] = Nucleation induction time measurement; assay type: physicochemical; settings: for Induction time (tind): 37 °C, no polymer
[11] = Crystallinity by PXRD following preparation; assay type: physicochemical; settings: immediately following preparation
Method: as §1

[12] = value of the strongest acidity, ref [3, 4] of supplement
[13] = value of the strongest acidity, ref [2] of supplement

In the case of `C[C@]1(COc2ccc(N3CCC(Oc4ccc(OC(F)(F)F)cc4)CC3)cc2)Cn2cc([N+](=O)[O-])nc2O1.O=S(=O)(O)CCS(=O)(=O)O` [DLM-edisylate (1:1)], the “Water sorption (%) at 95 % RH” value (Water sorption analysis) is reported as 59% and the Tg [1] is reported as 53.9 °C.

With `CC1(C)[C@@H]2CC[C@@]1(CS(=O)(=O)O)C(=O)C2.C[C@]1(COc2ccc(N3CCC(Oc4ccc(OC(F)(F)F)cc4)CC3)cc2)Cn2cc([N+](=O)[O-])nc2O1` [Camsylate] the “Impurity (19F NMR) (%)” value [2] was 2.0%, the “Drug content reduction (%)” value [2] was 6.1% and the “Water sorption (%) at 95 % RH” value (Water sorption analysis) was 8.1%. It also gave a Tg [1] of 97.9 °C.

For `C[C@]1(COc2ccc(N3CCC(Oc4ccc(OC(F)(F)F)cc4)CC3)cc2)Cn2cc([N+](=O)[O-])nc2O1` [Delamanid], the “Log P” value [3] is given as 6.14, the “Drug concentration released in acid stage” value ([4]; pH-shift experiment, low pH (1.6) stage) is given as “around 20 µg/mL” and the “Drug release (in words)” value [5] is given as “no release was detected”. The pKa [6] was 3.99, the “Hygroscopicity (in words)” value (Water sorption analysis) was “non-hygroscopic” and the “Log P” value [7] was 5.67. For the same molecule, the pKa [8] was 4.3, the “Glass forming ability class” value ([1]; cooling from the melt at 50 °C/min) was “Class I” and the Tg [1] was 43.3 °C. The Tg ([1]; listed as delamanid free base) was 43.3 ± 0.4 °C, the Nanodroplet size change [9] was “no notable change” and the Induction time ([10]; PBS pH 6.5, Eud-L100 300 µg/mL) was 10.2 ± 3.1 min. For the same molecule, the Induction time ([10]; PBS pH 6.5, HPMC 300 µg/mL) was “about 50 min”, the Induction time ([10]; PBS pH 6.5, HPMCAS 300 µg/mL) was “more than 1000 min” and the Induction time ([10]; PBS pH 6.5, HPMCP 300 µg/mL) was “more than 1000 min”. For the same molecule, the Induction time ([10]; PBS pH 6.5, PVPVA 300 µg/mL) was “more than 1000 min” and the Induction time ([10]; in presence of PVPVA, HPMCAS or HPMCP) was > 720 min.

In the case of `O.O.O=S(=O)(O)CCS(=O)(=O)O` [Ethanedisulfonic, 1,2-Ethanedisulfonic acid dihydrate], the pKa [8, 12] is given as -2.1 [3, 4].

In the case of `O=S(=O)(O)c1cccc2c(S(=O)(=O)O)cccc12` [Naphthalenedisulfonic, 1,5-naphthalenedisulfonic acid], the pKa [8, 12] is listed as 0.17 [3, 4].

For `O=S(=O)(O)c1ccc(Cl)cc1` [Chlorobenzenesulfonic, 4-chlorobenzenesulfonic acid], the pKa ([8]; value of the strongest acidity, ref [5] of supplement) is listed as -0.61 [5].

For Tosylate, the “Impurity (19F NMR) (%)” value [2] was 1.0%, the Liquefaction [2] was “liquefaction” and the “Drug content reduction (%)” value [2] was 2.1%. The “Water sorption (%) at 95 % RH” value (Water sorption analysis) was 6.1%, the Tg [1] was 90.2 °C and the “Induction time (tind)” value ([10]; FaSSGF (pH 1.6), at amorphous solubility) was 1.0 min. The “Induction time (tind)” value ([10]; PBS pH 6.5, at amorphous solubility) was 18.5 min.

For `C[C@]1(COc2ccc(N3CCC(Oc4ccc(OC(F)(F)F)cc4)CC3)cc2)Cn2cc([N+](=O)[O-])nc2O1.O=S(=O)(O)c1ccc(Cl)cc1` [Closylate], the “Impurity (19F NMR) (%)” value [2] was 2.3%, the Liquefaction [2] was “liquefaction” and the “Drug content reduction (%)” value [2] was 3.1%. For the same molecule, the “Water sorption (%) at 95 % RH” value (Water sorption analysis) was 5.8% and the Tg [1] was 90.1 °C.

For `CC1(COc2ccc(N3CCC(Oc4ccc(OC(F)(F)F)cc4)CC3)cc2)Cn2cc([N+](=O)[O-])nc2O1.CC1(COc2ccc(N3CCC(Oc4ccc(OC(F)(F)F)cc4)CC3)cc2)Cn2cc([N+](=O)[O-])nc2O1.O=S(=O)(O)c1cccc2c(S(=O)(=O)O)cccc12` (stereo not shown) [Napadisylate (2:1)], the “Crystallinity by PXRD (in words)” value [11] was “partial crystallization”.

For `CCS(=O)(=O)O` [Ethanesulfonic, Ethanesulfonic acid], the pKa [8, 13] is listed as -1.68 and the pKa ([8]; value of the strongest acidity, ref [3] of supplement) is listed as -2.05.

In the case of `CC1(C)C2CC[C@@]1(CS(=O)(=O)O)C(=O)C2` [Camphorsulfonic, (1S)-(+)-10-camphorsulfonic acid], the pKa ([8]; value of the strongest acidity, ref [6] of supplement) is listed as 1.2 [6].

In the case of `O=S(=O)(O)c1ccccc1` [Benzenesulfonic, benzenesulfonic acid], the pKa [8, 13] is listed as -2.8.

For `C[C@]1(COc2ccc(N3CCC(Oc4ccc(OC(F)(F)F)cc4)CC3)cc2)Cn2cc([N+](=O)[O-])nc2O1.C[C@]1(COc2ccc(N3CCC(Oc4ccc(OC(F)(F)F)cc4)CC3)cc2)Cn2cc([N+](=O)[O-])nc2O1.O=S(=O)(O)CCS(=O)(=O)O` [Edisylate (2:1)], the “Release in acidic medium (in words)” value ([4]; acid stage of pH-shift experiment) was “slightly higher than that observed for DLM free base”, the “Drug release (in words)” value [5] was “no release” and the “Impurity (19F NMR) (%)” value [2] was 1.0%. The “Drug content reduction (%)” value [2] was 0.8%, the “Water sorption (%) at 95 % RH” value (Water sorption analysis) was 11.6% and the Tg [1] was 117.8 °C.
